Measured values from patent US8287923B2, “Compositions and methods for treating immune disorders” (priority 2005, dated 2012).

System: normal human epidermal keratinocytes (NHEK)
Test: Affymetrix gene array analysis, autoantigen gene expression
Assay type: cell-based
Description: The gene array experiment was performed at the Core Facility of Genomics of the Medical College of Georgia, according to the instructions of the manufacturer (Affymetrix, Santa Clara, Calif.). Briefly, NHEK and OSC2 cells treated with 100 μM EGCG for different time period were extracted for total RNA, the RNA was processed for probes and hybridized with a cDNA microarray (HuG133A, Affymetrix) which represents 22,283 human series. DNA chips were read with a Hewlett-Packard GeneArray Scanner at a resolution of […] and were analyzed with the GeneSpring software (Silicon Genetics, Redwood City, Calif.). Details of this analysis will be published elsewhere (Hsu et al., manuscript in preparation).
Gene assays provide a valuable tool for studying the broad response of cells to agents, and we have used this approach to compare the differential effects of GTPP on gene expression in NHEK and human oral squamous carcinoma cells (Hsu, et al, manuscript in preparation). […] See also Hsu, S. et al. (2005) JPET 315:805-811, which is incorporated by reference in its entirety.

RNA polymerase 1 (202692_s-at) expression, normalized (24 h, 100 μM): 0.55
ADPRT [poly(ADP)-ribose polymerase] expression (24 h, 100 μM, vs time zero): 0.85 fold
decrease in mRNA levels of RNA polymerase I, SS-B/La, alpha-fodrin and golgin-67 (rapid (0.5-2 hr initiation) and persistent during the 24 hr period): ≥ 2 fold
Compound: O=C(O[C@@H]1Cc2c(O)cc(O)cc2O[C@@H]1c1cc(O)c(O)c(O)c1)c1cc(O)c(O)c(O)c1 [EGCG, (−)-epigallocatechin-3-gallate]
Ku autoantigen, 80 kDa (208642_s_at) expression, normalized (24 h, 100 μM): 0.73
Ku autoantigen, 80 kDa (208643_s_at) expression, normalized (24 h, 100 μM): 0.77
Nuclear antigen SP100 (202863_at) expression, normalized (24 h, 100 μM): 0.36
Nuclear antigen SP100 (202864_s_at) expression, normalized (24 h, 100 μM): 0.08
Nuclear antigen SP10075 kDa (213226_at) expression, normalized (24 h, 100 μM): 0.50
SS-B/La (201138_s_at) expression, normalized (24 h, 100 μM): 0.27
SS-B/La (201139_s_at) expression, normalized (24 h, 100 μM): 0.26
centromere protein C1 (20473_at) expression, normalized (24 h, 100 μM): 0.94
coilin (203653_s_at) expression, normalized (24 h, 100 μM): 0.79
coilin (203654_s_at) expression, normalized (24 h, 100 μM): 0.79
fodrin-α (208611_s_at) expression, normalized (24 h, 100 μM): 0.42
fodrin-α (215235_s_at) expression, normalized (24 h, 100 μM): 0.71
golgin-67 (208797_s_at) expression, normalized (24 h, 100 μM): 0.29
golgin-67 (208798_x_at) expression, normalized (24 h, 100 μM): 0.31
golgin-67 (210425_x_at) expression, normalized (24 h, 100 μM): 0.31
golgin-67 (213650_at) expression, normalized (24 h, 100 μM): 0.72
scleroderma autoantigen 1, 75 kDa (213226_at) expression, normalized (24 h, 100 μM): 0.50
spectrin-β non-erythrocyctic 1 (212071_s_at) expression, normalized (24 h, 100 μM): 0.72
thyroid autoantigen 70 kDa (Ku antigen) (200792_at) expression, normalized (24 h, 100 μM): 0.79
ANAP12 expression (24 h, 100 μM, vs time zero): 0.198 fold
ANXA11 expression (24 h, 100 μM, vs time zero): 1.946 fold
CALR expression (24 h, 100 μM, vs time zero): 1.528 fold
CBARA1 expression (24 h, 100 μM, vs time zero): 0.721 fold
CENPA expression (24 h, 100 μM, vs time zero): 0.673 fold
CENPB expression (24 h, 100 μM, vs time zero): 0.721 fold
CENPC1 expression (24 h, 100 μM, vs time zero): 0.936 fold
CHD4 expression (24 h, 100 μM, vs time zero): 0.84 fold
COL17A1 expression (24 h, 100 μM, vs time zero): 0.684 fold
CTDSP1 expression (24 h, 100 μM, vs time zero): 1.39 fold
CTDSP2 expression (24 h, 100 μM, vs time zero): 1.71 fold
CTDSPL expression (24 h, 100 μM, vs time zero): 2.10 fold
DLAT expression (24 h, 100 μM, vs time zero): 0.751 fold
EPPK1 expression (24 h, 100 μM, vs time zero): 0.889 fold
FBL expression (24 h, 100 μM, vs time zero): 0.69 fold
FLJ31657 expression (24 h, 100 μM, vs time zero): 0.959 fold
FLNB (Filamin B, β) expression (24 h, 100 μM, vs time zero): 0.249 fold
FLNB (Filamin B, γ) expression (24 h, 100 μM, vs time zero): 0.243 fold
G22P1 (Thyroid autoantigen, 70 kDa, Ku antigen) expression (24 h, 100 μM, vs time zero): 0.792 fold
GMEB2 expression (24 h, 100 μM, vs time zero): 0.745 fold
GOLGA1 expression (24 h, 100 μM, vs time zero): 0.9 fold
GOLGA2 expression (24 h, 100 μM, vs time zero): 0.949 fold
GOLGA3 expression (24 h, 100 μM, vs time zero): 0.419 fold
GOLGA4 expression (24 h, 100 μM, vs time zero): 0.664 fold
GOLGA5 expression (24 h, 100 μM, vs time zero): 1.494 fold
GOLGB1 expression (24 h, 100 μM, vs time zero): 0.688 fold
HARS expression (24 h, 100 μM, vs time zero): 0.72 fold
HARSL expression (24 h, 100 μM, vs time zero): 1.00 fold
HSA6591 expression (24 h, 100 μM, vs time zero): 0.562 fold
HUMAUANTIG expression (24 h, 100 μM, vs time zero): 0.517 fold
IMP-2 expression (24 h, 100 μM, vs time zero): 0.665 fold
LAD1 expression (24 h, 100 μM, vs time zero): 0.553 fold
LMO4 expression (repeat 1) (24 h, 100 μM, vs time zero): 1.011 fold
LMO4 expression (repeat 2) (24 h, 100 μM, vs time zero): 0.659 fold
MGC5560 expression (repeat 1) (24 h, 100 μM, vs time zero): 0.81 fold
MGC5560 expression (repeat 2) (24 h, 100 μM, vs time zero): 0.552 fold
NS (Nucleostemin) expression (24 h, 100 μM, vs time zero): 0.814 fold
PDHB expression (24 h, 100 μM, vs time zero): 0.818 fold
PDX1 expression (24 h, 100 μM, vs time zero): 0.903 fold
PMSCL1, 75 kDa expression (24 h, 100 μM, vs time zero): 0.496 fold
PMSCL2 expression (24 h, 100 μM, vs time zero): 0.717 fold
POLR1B expression (24 h, 100 μM, vs time zero): 1.04 fold
POLR1D expression (24 h, 100 μM, vs time zero): 1.31 fold
POLR2A expression (repeat 1) (24 h, 100 μM, vs time zero): 1.02 fold
POLR2A expression (repeat 2) (24 h, 100 μM, vs time zero): 1.17 fold
POLR2B expression (24 h, 100 μM, vs time zero): 0.74 fold
POLR2C expression (24 h, 100 μM, vs time zero): 1.66 fold
POLR2D expression (24 h, 100 μM, vs time zero): 0.29 fold
POLR2E expression (24 h, 100 μM, vs time zero): 0.39 fold
POLR2F expression (24 h, 100 μM, vs time zero): 0.80 fold
POLR2G expression (24 h, 100 μM, vs time zero): 0.89 fold
POLR2H expression (24 h, 100 μM, vs time zero): 1.15 fold
POLR3C expression (24 h, 100 μM, vs time zero): 0.49 fold
POLR3G expression (24 h, 100 μM, vs time zero): 0.47 fold
PSME3 expression (24 h, 100 μM, vs time zero): 0.421 fold
RALY expression (24 h, 100 μM, vs time zero): 0.612 fold
SART1 expression (24 h, 100 μM, vs time zero): 0.98 fold
SLC25A16 expression (24 h, 100 μM, vs time zero): 1.144 fold
SNRP70 expression (24 h, 100 μM, vs time zero): 0.51 fold
SNRPA expression (24 h, 100 μM, vs time zero): 0.32 fold
SNRPB2 expression (24 h, 100 μM, vs time zero): 0.82 fold
SNRPB expression (repeat 1) (24 h, 100 μM, vs time zero): 0.52 fold
SNRPB expression (repeat 2) (24 h, 100 μM, vs time zero): 0.42 fold
SNRPC expression (24 h, 100 μM, vs time zero): 1.12 fold
SNRPD1 expression (repeat 1) (24 h, 100 μM, vs time zero): 0.425 fold
SNRPD1 expression (repeat 2) (24 h, 100 μM, vs time zero): 0.517 fold
SOX13 expression (24 h, 100 μM, vs time zero): 1.582 fold
SP100 expression (repeat 1) (24 h, 100 μM, vs time zero): 0.356 fold
SP100 expression (repeat 2) (24 h, 100 μM, vs time zero): 0.079 fold
SP110 expression (repeat 1) (24 h, 100 μM, vs time zero): 0.978 fold
SP110 expression (repeat 2) (24 h, 100 μM, vs time zero): 0.654 fold
SP110 expression (repeat 3) (24 h, 100 μM, vs time zero): 0.621 fold
SPTAN1 (α-fodrin) expression (repeat 1) (24 h, 100 μM, vs time zero): 0.42 fold
SPTAN1 (α-fodrin) expression (repeat 2) (24 h, 100 μM, vs time zero): 0.71 fold
SPTBN expression (24 h, 100 μM, vs time zero): 0.72 fold
SSA2 (autoantigen SS-A/Ro) expression (repeat 2) (24 h, 100 μM, vs time zero): 0.88 fold
SSA2 expression (repeat 1) (24 h, 100 μM, vs time zero): 1.17 fold
SSA2 expression (repeat 3) (24 h, 100 μM, vs time zero): 1.556 fold
SSA2 expression (repeat 4) (24 h, 100 μM, vs time zero): 0.94 fold
SSB (autoantigen La) expression (repeat 1) (24 h, 100 μM, vs time zero): 0.273 fold
SSB (autoantigen La) expression (repeat 2) (24 h, 100 μM, vs time zero): 0.257 fold
SSNA1 expression (24 h, 100 μM, vs time zero): 0.943 fold
SSSCA1 expression (24 h, 100 μM, vs time zero): 1.228 fold
STRN3 expression (24 h, 100 μM, vs time zero): 0.759 fold
TOP1 expression (repeat 1) (24 h, 100 μM, vs time zero): 0.12 fold
TOP1 expression (repeat 2) (24 h, 100 μM, vs time zero): 0.43 fold
UBTF expression (24 h, 100 μM, vs time zero): 0.546 fold
XRCC5 (Ku autoantigen, 80 kDa) expression (repeat 1) (24 h, 100 μM, vs time zero): 0.771 fold
XRCC5 (Ku autoantigen, 80 kDa) expression (repeat 2) (24 h, 100 μM, vs time zero): 0.725 fold
dJ963E22.1 expression (24 h, 100 μM, vs time zero): 0.88 fold
α-NAC expression (24 h, 100 μM, vs time zero): 0.469 fold
rapid initial increase of nuclear antigen SP100 and scleroderma autoantigen 1 mRNA (followed by a 2-fold or greater decrease): 2-4 fold
60 kDa SS-A/Ro mRNA level (time course up to 24 hr): did not decline significantly
